From publication PMC8151276, “An Integrated Approach toward NanoBRET Tracers for Analysis of GPCR Ligand Engagement” (Molecules, 2021)

Columns and labels:
Type in all cases: binding
CCKAR = biological target: T1, CCKAR (Homo sapiens, UniProt P32238); assay: NanoBRET screen HiBiT-CCKAR in HEK293; conditions: CCKAR
T1 construct: purchased Promega (in-house HiBiT-GPCR construct library, NanoBRET)
T1 sequence (P32238 1-428): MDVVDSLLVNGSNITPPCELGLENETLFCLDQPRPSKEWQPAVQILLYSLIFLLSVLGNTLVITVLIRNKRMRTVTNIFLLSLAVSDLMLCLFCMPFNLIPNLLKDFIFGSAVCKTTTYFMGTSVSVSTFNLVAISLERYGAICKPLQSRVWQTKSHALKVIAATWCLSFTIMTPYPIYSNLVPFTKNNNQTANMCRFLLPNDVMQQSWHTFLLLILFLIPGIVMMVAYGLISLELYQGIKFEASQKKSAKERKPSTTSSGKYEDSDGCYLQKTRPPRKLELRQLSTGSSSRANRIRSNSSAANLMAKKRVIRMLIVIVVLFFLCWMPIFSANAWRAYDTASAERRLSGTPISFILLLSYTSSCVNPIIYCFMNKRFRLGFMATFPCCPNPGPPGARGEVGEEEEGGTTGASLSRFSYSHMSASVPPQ
Method: (§1) Each tracer candidate was screened across the entire library of HiBiT-GPCR constructs using NanoBRET as the detection modality. As depicted in Figure 4A, the specificity of interactions was evaluated through decrease in BRET due to competitive displacement of a bound tracer by excess parental compound. Each tracer was analyzed for binding to each HiBiT-GPCR fusion in the absence and in the presence of competing parental compound. Briefly, HEK293 cells were transfected with HiBiT-GPCR constructs diluted into promoterless DNA to reduce expression and maximize translocation to the cell surface. Each tracer candidate was then screened at concentrations of 1 μM and 0.1 μM across cells expressing these fusions. Cells were treated for 1.5 h with tracer either alone or in the presence of 20 μM competing parental compound (i.e., control). BRET was measured upon addition of purified LgBiT and subsequent complementation with HiBiT genetically fused to a GPCR. The specificity of interactions was assessed through a decrease in BRET signal due to competitive displacement of the bound tracer. To further gauge the robustness of these interactions, the fold response over the control (i.e., BRETtracer/BRETcontrol) was calculated. We chose a 1.5-fold response, which translates to ≥7-fold signal over noise as the minimal threshold required to score an interaction as positive. […]. Below we highlight the screening results obtained for our exemplary fluorescent tracers based on Clozapine, Amitriptyline and AZD1283.
(§2) HiBiT-GPCR DNA constructs were diluted in 10 mM Tris pH 8 to a final concentration of 0.01 μg/μL, arrayed in 96-well plates and stored at −20 °C. For transfection, HEK293 cells were suspended in Opti-MEM (without phenol red) supplemented with 2% fetal bovine serum (Seradigm) and 100 units/mL penicillin–streptomycin (Gibco) at a final concentration of 220,000 cells/mL and dispensed into white 96-well plates at 90 μL/well. Subsequent transfections and screens were carried using an Agilent Bravo Automated Liquid Handling Platform. First, the 96-well HiBiT DNA arrays were diluted 25-fold in Opti-MEM (without serum or phenol red) to a final concentration of 0.0004 μg/μL and 20 μL of the diluted DNAs were transferred into new 96-well plates. Next, promoterless carrier DNA (1 μg/μL) was diluted 25-fold (0.04 μg/μL) and then dispensed into the diluted arrays at 20 μL/well. Following brief mixing, Viafect transfection reagent (Promega) diluted 16-fold into Opti-MEM was dispensed into the plates at 40 μL/well. After mixing by pipetting, plates were incubated for 10 min on the pipetting station deck. The DNA-transfection reagent complexes were then added to plates containing cells. To facilitate the screen, 10 μL of DNA-transfection reagent complexes were added in duplicates to the top 4 and bottom 4 rows, resulting in two identical 48-well arrays per plate. Plates with transfected cells were incubated for 18–20 h at 37 °C/5% CO2. A screen of each tracer across the entire library using two different concentrations requires duplicate plates of transfected cells. Depending on the number of tracers being screened, transfections can be scaled up using the same ratios. The next day, for each tracer, four 20× screening solutions in tracer dilution buffer (Promega) were prepared: two duplicates at final concentration of 20 μM and two duplicates at a final concentration of 2 μM. A competing unmodified compound was added to one of each duplicate at a final concentration of 400 μM. The four resulting solutions were diluted 4-fold in Opti-MEM without serum or phenol red to generate 5× solutions (5 µM and 0.5 µM tracer +/− 100 μM competing compound). To screen the library, a BioTek MultiFlo FX liquid dispenser was used to dispense 22.5 µL of tracer solution to the top 4 rows and 22.5 µL tracer + competing compound solution to the 4 bottom rows. Plates were briefly mixed on an orbital shaker and incubated for 1.5 h at room temperature. […]

OPRK1 = biological target: T2, OPRK1 (Homo sapiens, UniProt P41145); assay: NanoBRET screen HiBiT-OPRK1 in HEK293; conditions: OPRK1
T2 construct: purchased Promega (in-house HiBiT-GPCR construct library, NanoBRET)
Method: as §1, §2

GHSR = biological target: T3, GHSR (Homo sapiens, UniProt Q92847); assay: NanoBRET screen HiBiT-GHSR in HEK293; conditions: GHSR
T3 construct: purchased Promega (in-house HiBiT-GPCR construct library, NanoBRET)
Method: as §1, §2

HTR1B = biological target: T4, HTR1B (Homo sapiens, UniProt P28222); assay: NanoBRET screen HiBiT-HTR1B in HEK293; conditions: HTR1B
T4 construct: purchased Promega (in-house HiBiT-GPCR construct library, NanoBRET)
Method: as §1, §2

MC3R = biological target: T5, MC3R (Homo sapiens, UniProt P41968); assay: NanoBRET screen HiBiT-MC3R in HEK293; conditions: MC3R
T5 construct: purchased Promega (in-house HiBiT-GPCR construct library, NanoBRET)
Method: as §1, §2

ADORA3 = biological target: T6, ADORA3 (Homo sapiens, UniProt P0DMS8); assay: NanoBRET screen HiBiT-ADORA3 in HEK293; conditions: ADORA3
T6 construct: purchased Promega (in-house HiBiT-GPCR construct library, NanoBRET)
T6 sequence (P0DMS8 1-318): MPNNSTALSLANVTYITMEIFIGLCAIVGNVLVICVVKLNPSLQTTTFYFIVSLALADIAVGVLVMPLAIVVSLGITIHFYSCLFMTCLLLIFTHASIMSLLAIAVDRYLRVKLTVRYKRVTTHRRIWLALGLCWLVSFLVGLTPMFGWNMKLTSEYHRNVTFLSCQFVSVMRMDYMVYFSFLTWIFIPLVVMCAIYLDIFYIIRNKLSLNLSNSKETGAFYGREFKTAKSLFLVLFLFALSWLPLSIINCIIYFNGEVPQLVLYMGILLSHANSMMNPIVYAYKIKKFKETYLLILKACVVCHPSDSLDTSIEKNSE
Method: as §1, §2

T2 sequence (P41145 whole entry): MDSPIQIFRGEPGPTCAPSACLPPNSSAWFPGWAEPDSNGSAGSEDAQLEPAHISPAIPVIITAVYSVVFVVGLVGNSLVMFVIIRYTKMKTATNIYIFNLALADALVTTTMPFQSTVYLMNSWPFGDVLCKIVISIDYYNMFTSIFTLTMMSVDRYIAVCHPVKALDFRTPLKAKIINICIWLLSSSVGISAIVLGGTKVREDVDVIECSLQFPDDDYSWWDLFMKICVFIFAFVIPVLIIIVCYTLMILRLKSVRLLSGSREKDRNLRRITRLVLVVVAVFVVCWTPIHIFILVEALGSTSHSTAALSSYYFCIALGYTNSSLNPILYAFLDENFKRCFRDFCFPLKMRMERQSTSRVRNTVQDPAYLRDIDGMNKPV
T3 sequence (Q92847 whole entry): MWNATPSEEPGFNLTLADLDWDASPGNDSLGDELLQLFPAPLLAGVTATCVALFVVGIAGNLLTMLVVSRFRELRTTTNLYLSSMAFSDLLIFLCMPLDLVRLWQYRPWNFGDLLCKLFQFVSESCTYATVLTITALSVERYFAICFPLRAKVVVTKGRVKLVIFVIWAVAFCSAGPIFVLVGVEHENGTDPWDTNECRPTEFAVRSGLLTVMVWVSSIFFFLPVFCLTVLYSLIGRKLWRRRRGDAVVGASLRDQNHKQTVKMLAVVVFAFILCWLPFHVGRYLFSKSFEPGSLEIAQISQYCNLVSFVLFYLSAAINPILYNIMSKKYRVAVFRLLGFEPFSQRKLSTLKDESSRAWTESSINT
T5 sequence (P41968 whole entry): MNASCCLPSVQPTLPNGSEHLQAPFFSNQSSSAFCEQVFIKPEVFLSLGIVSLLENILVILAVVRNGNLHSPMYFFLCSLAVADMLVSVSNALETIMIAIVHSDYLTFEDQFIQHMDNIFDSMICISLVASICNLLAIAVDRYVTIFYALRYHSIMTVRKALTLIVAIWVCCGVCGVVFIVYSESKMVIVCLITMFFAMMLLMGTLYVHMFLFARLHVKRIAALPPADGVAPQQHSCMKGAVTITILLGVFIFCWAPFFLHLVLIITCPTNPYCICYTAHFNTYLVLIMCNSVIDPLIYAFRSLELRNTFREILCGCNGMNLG
T4 sequence (P28222 whole entry): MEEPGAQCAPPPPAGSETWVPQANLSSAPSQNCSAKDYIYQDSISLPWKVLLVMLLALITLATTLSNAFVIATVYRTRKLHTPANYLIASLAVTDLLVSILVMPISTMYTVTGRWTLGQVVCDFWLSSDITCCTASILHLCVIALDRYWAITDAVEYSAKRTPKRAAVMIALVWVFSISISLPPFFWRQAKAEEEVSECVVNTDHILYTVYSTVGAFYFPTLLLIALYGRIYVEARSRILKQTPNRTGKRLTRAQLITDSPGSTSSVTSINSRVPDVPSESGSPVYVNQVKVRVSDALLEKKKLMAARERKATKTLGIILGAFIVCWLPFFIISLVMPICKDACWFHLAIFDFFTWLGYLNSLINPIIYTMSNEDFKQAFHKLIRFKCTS

| Compound | NanoBRET Fold Response (CCKAR; tracer 0.1μM) | NanoBRET Fold Response (CCKAR; tracer 1μM) | NanoBRET Fold Response (OPRK1; tracer 0.1μM) | NanoBRET Fold Response (OPRK1; tracer 1μM) | NanoBRET Fold Response (GHSR; tracer 0.1μM) | NanoBRET Fold Response (GHSR; tracer 1μM) | NanoBRET Fold Response (HTR1B; tracer 0.1μM) | NanoBRET Fold Response (HTR1B; tracer 1μM) | NanoBRET Fold Response (MC3R; tracer 0.1μM) | NanoBRET Fold Response (MC3R; tracer 1μM) | NanoBRET Fold Response (ADORA3; tracer 0.1μM) | NanoBRET Fold Response (ADORA3; tracer 1μM) | also measured |
| --- | --- | --- | --- | --- | --- | --- | --- | --- | --- | --- | --- | --- | --- |
| CN1CCN(C2=Nc3cc(Cl)ccc3Nc3ccc(CNC(=O)CCOCCOCCOCCOCCNC(=O)CCc4ccc5n4[B-](F)(F)[N+]4=C(c6ccc[nH]6)C=CC4=C5)cc32)CC1 [Clozapine-b-2-NB590] |  |  |  |  |  |  |  |  |  |  |  |  | NanoBRET Fold Response (CCKAR; 0.1μM tracer): 1.02; NanoBRET Fold Response (CCKAR; 1μM tracer): 0.88; NanoBRET Fold Response (OPRK1; 0.1μM tracer): 0.99; NanoBRET Fold Response (OPRK1; 1μM tracer): 0.96; NanoBRET Fold Response (GHSR; 0.1μM tracer): 1.01; NanoBRET Fold Response (GHSR; 1μM tracer): 1.03; NanoBRET Fold Response (HTR1B; 0.1μM tracer): 2.07; NanoBRET Fold Response (HTR1B; 1μM tracer): 2.97; NanoBRET Fold Response (MC3R; 0.1μM tracer): 1.05; NanoBRET Fold Response (MC3R; 1μM tracer): 0.94; NanoBRET Fold Response (ADORA3; 0.1μM tracer): 1.02; NanoBRET Fold Response (ADORA3; 1μM tracer): 1.08 |
| CN1CCN(C2=Nc3cc(Cl)ccc3N(CC(=O)NCCOCCOCCOCCOCCNC(=O)CCc3ccc4n3[B-](F)(F)[N+]3=C(c5ccc[nH]5)C=CC3=C4)c3ccccc32)CC1 [Clozapine-c-2-NB590] |  |  |  |  |  |  |  |  |  |  |  |  | NanoBRET Fold Response (CCKAR; 0.1μM tracer): 1.01; NanoBRET Fold Response (CCKAR; 1μM tracer): 0.74; NanoBRET Fold Response (OPRK1; 0.1μM tracer): 1.01; NanoBRET Fold Response (OPRK1; 1μM tracer): 0.90; NanoBRET Fold Response (GHSR; 0.1μM tracer): 1.00; NanoBRET Fold Response (GHSR; 1μM tracer): 1.04; NanoBRET Fold Response (HTR1B; 0.1μM tracer): 0.95; NanoBRET Fold Response (HTR1B; 1μM tracer): 1.47; NanoBRET Fold Response (MC3R; 0.1μM tracer): 1.02; NanoBRET Fold Response (MC3R; 1μM tracer): 1.03; NanoBRET Fold Response (ADORA3; 0.1μM tracer): 1.05; NanoBRET Fold Response (ADORA3; 1μM tracer): 0.81 |
| O=C(CCOCCOCCOCCOCCNC(=O)CCc1ccc2n1[B-](F)(F)[N+]1=C(c3ccc[nH]3)C=CC1=C2)NCCCN1CCN(C2=Nc3ccccc3Oc3ccc(Cl)cc32)CC1 [Loxapine-a-2-NB590] | 1.02 | 0.99 | 1.03 | 0.95 | 0.97 | 1.09 | 2.42 | 2.84 | 1.00 | 1.00 | 1.04 | 0.78 |  |
| COc1ccccc1N1CCN(CCCCN2C(=O)c3ccc(CNC(=O)CCOCCOCCOCCOCCNC(=O)CCc4ccc5n4[B-](F)(F)[N+]4=C(c6ccc[nH]6)C=CC4=C5)cc3C2=O)CC1 [NAN-190-2-NB590] | 0.98 | 0.96 | 1.02 |  | 1.01 | 1.02 | 1.73 | 1.25 | 1.03 | 1.00 | 0.96 | 0.89 |  |
| COc1ccccc1N1CCN(CCCCN2C(=O)c3ccc(CNC(=O)CCOCCNC(=O)c4ccc(CNC(=O)CCc5ccc6n5[B-](F)(F)[N+]5=C(c7ccc[nH]7)C=CC5=C6)cc4)cc3C2=O)CC1 [NAN-190-3-NB590] | 0.98 | 0.99 | 0.89 | 1.16 | 0.86 | 1.06 | 1.38 | 1.42 | 1.10 | 0.95 | 0.97 | 1.19 |  |
| O=C(CCc1ccc2n1[B-](F)(F)[N+]1=C(c3ccc[nH]3)C=CC1=C2)NCc1ccc(C(=O)NCCOCCC(=O)N[C@@H]2CC[C@@]3(O)[C@H]4Cc5ccc(O)c6c5[C@@]3(CCN4CC3CC3)[C@H]2O6)cc1 [Naltrexone-3-NB590] | 1.10 | 1.05 | 2.19 | 1.53 | 1.01 | 0.90 | 1.01 | 1.33 | 0.90 | 1.11 | 0.77 | 0.84 |  |
| Cc1cc2c(s1)Nc1ccccc1N=C2N1CCN(CCCNC(=O)CCOCCOCCOCCOCCNC(=O)CCc2ccc3n2[B-](F)(F)[N+]2=C(c4ccc[nH]4)C=CC2=C3)CC1 [Olanzapine-a-2-NB590] | 1.02 | 1.04 | 0.92 | 1.16 | 0.96 | 0.98 | 2.53 | 2.81 | 1.00 | 1.12 | 0.94 | 1.13 |  |
| O=C(CCc1ccc2n1[B-](F)(F)[N+]1=C(c3ccc[nH]3)C=CC1=C2)NCc1ccc(C(=O)NCCOCCOCCNCC(O)COc2cccc3ccccc23)cc1 (centres unmarked) [Propranolol-3-NB590] |  |  |  |  |  |  |  |  |  |  |  |  | NanoBRET Fold Response (CCKAR; 0.1μM): 0.99; NanoBRET Fold Response (CCKAR; 1μM): 0.98; NanoBRET Fold Response (OPRK1; 0.1μM): 1.08; NanoBRET Fold Response (OPRK1; 1μM): 1.02; NanoBRET Fold Response (GHSR; 0.1μM): 0.98; NanoBRET Fold Response (GHSR; 1μM): 0.97; NanoBRET Fold Response (HTR1B; 0.1μM): 0.99; NanoBRET Fold Response (HTR1B; 1μM): 1.06; NanoBRET Fold Response (MC3R; 0.1μM): 1.05; NanoBRET Fold Response (MC3R; 1μM): 0.99; NanoBRET Fold Response (ADORA3; 0.1μM): 1.04; NanoBRET Fold Response (ADORA3; 1μM): 0.98 |
